Results from ChEMBL document CHEMBL1255314, “Outbreak of Acinetobacter baumannii with chromosomally encoded VIM-1 undetectable by imipenem-EDTA synergy tests” (2008).
≈ marks a conversion by molar mass, not a printed value.

Tests used:
Acinetobacter baumannii = assay: Antimicrobial activity against Acinetobacter baumannii isolates by agar dilution method; assay type: functional
[1] = target: Metallo-beta-lactamase (Acinetobacter baumannii) (UniProt Q4F6N3); assay: Activity of Acinetobacter baumannii isolate TZ42/166 VIM-1 assessed as compound hydrolysis
[2] = target: Metallo-beta-lactamase (Acinetobacter baumannii) (UniProt Q4F6N3); assay: Activity of Acinetobacter baumannii VIM-1 assessed as compound hydrolysis
[3] = target: Metallo-beta-lactamase (Acinetobacter baumannii) (UniProt Q4F6N3); assay: Activity of Acinetobacter baumannii isolate TZ42/166 VIM-1 assessed as compound hydrolysis in presence of EDTA
[4] = target: BlaVIM-1 (Escherichia coli) (UniProt Q8GDC1); assay: Inhibition of VIM-1 activity in Escherichia coli extracts at 100 uM

| SMILES | MIC (Acinetobacter baumannii) [µg/mL] | other results |
| --- | --- | --- |
| C[C@H]1[C@H](NC(=O)/C(=N\OC(C)(C)C(=O)O)c2csc(N)n2)C(=O)N1S(=O)(=O)O [AZTREONAM] | > 64 |  |
| CO/N=C(\C(=O)N[C@@H]1C(=O)N2C(C(=O)O)=C(COC(C)=O)CS[C@H]12)c1csc(N)n1 [CEFOTAXIME] | > 64 |  |
| C[C@@H](O)[C@H]1C(=O)N2C(C(=O)O)=C(S[C@@H]3CN[C@H](C(=O)N(C)C)C3)[C@H](C)[C@H]12 [MEROPENEM] | 16 (≈ 41.7 µM) |  |
| CC(C)(O/N=C(\C(=O)N[C@@H]1C(=O)N2C(C(=O)[O-])=C(C[n+]3ccccc3)CS[C@H]12)c1csc(N)n1)C(=O)O [CEFTAZIDIME] | > 64 |  |
| CO/N=C(\C(=O)N[C@@H]1C(=O)N2C(C(=O)[O-])=C(C[N+]3(C)CCCC3)CS[C@H]12)c1csc(N)n1 [CEFEPIME] | > 64 |  |
| C[C@@H](O)[C@H]1C(=O)N2C(C(=O)O)=C(SCCNC=N)C[C@H]12 [IMIPENEM ANHYDROUS] | 16 (≈ 53.4 µM) | Activity [1]: 90 U; Activity [2]: 28 U; Activity [3]: 1.5 U; inhibition [4]: > 95% |
